ChEMBL document CHEMBL1201862, “PubChem BioAssay data set” (2004)
Active and inactive are the calls of the source.

Tests used:
[1] = A cytotoxicity screen of small molecule inhibitors of the PhoP region in Salmonella typhi identified in the primary screen. [Related pubchem assays: 1850, 1864, 1985 ]; type: functional
Cytochrome P450 3A4 = Cytochrome P450 3A4 (Homo sapiens, UniProt P08684); conditions: Potency;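 further: confirmatory qHTS run detecting inhibitors and substrates of CYP3A4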
[2] = molecular target: Voltage-dependent T-type calcium channel subunit alpha-1H (Homo sapiens, UniProt O95180); type: functional;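 further: channel activity triggered by adding a high calcium stimulation buffer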
[3] = molecular target: DNA dC->dU-editing enzyme APOBEC-3A (Homo sapiens, UniProt P31941); test: Dose Response confirmation of small molecule APOBEC3A DNA Deaminase Inhibitors via a fluorescence-based single-stranded DNA deaminase assay. [Related pubchem assays (depositor defined):AID493011, AID493024]; type: functional
[4] = molecular target: Eukaryotic translation initiation factor 4H (Homo sapiens, UniProt Q15056); test: human eIF4H binding inhibitors, primary screen, translation initiation inhibitor project, biochemical, uHTS, fluorescence polarization (AID 2012)
[5] = molecular target: Polyadenylate-binding protein 1 (Homo sapiens, UniProt P11940); test: PABP poly(A) RNA binding inhibitors, primary screen, biochemical, fluorescence polarization, uHTS (AID 2014)
[6] = molecular target: DNA dC->dU-editing enzyme APOBEC-3G (Homo sapiens, UniProt Q9HC16); type: functional;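 further: Dose-response counterscreen measuring inhibition of APOBEC3G DNA deaminase activity, run while confirming APOBEC3A inhibitors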
Protein RecA = molecular target: T1, Protein RecA (Mycobacterium tuberculosis, UniProt P9WHJ3); test: Fluorescence Cell-Free Homogeneous Dose Retest to Identify Inhibitors of RecA-Intein Splicing Activity. [Related pubchem assays (depositor defined):AID2097, AID2223, AID489010, AID492950]; type: functional
T1 sequence (P9WHJ3 whole entry): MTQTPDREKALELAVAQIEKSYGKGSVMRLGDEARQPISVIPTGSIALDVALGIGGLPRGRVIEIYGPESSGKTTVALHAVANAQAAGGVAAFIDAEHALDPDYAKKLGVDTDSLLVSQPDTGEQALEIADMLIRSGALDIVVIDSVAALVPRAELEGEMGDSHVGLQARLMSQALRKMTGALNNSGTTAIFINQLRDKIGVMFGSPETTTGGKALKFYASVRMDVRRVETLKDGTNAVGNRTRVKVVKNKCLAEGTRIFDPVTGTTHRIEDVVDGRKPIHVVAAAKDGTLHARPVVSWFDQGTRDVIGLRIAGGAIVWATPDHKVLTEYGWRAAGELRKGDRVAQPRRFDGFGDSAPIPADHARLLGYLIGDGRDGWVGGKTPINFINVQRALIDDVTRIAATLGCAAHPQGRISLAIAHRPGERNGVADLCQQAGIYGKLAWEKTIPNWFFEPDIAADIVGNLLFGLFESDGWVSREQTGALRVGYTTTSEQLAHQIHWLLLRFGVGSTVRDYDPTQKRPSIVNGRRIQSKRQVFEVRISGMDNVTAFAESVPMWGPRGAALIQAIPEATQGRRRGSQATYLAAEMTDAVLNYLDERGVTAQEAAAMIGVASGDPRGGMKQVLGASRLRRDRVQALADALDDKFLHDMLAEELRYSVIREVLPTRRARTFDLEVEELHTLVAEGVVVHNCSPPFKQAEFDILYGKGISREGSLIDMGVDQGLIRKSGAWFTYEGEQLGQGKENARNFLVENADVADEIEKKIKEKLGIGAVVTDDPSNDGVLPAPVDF

Procathepsin L = Procathepsin L (Homo sapiens, UniProt P07711); test: cathepsin L inhibitors, dose response, counter-screen for M1/M17 aminopeptidase inhibitor project, biochemical, QFRET, 1536-well (AID 2214)
[7] = molecular target: T2, Replicative DNA helicase DnaB (Mycobacterium tuberculosis, UniProt P9WMR3); test: DnaB intein splicing inhibitors, dose response, biochemical, cell-free fluorescence (AID 449749); type: functional
T2 sequence (P9WMR3 whole entry): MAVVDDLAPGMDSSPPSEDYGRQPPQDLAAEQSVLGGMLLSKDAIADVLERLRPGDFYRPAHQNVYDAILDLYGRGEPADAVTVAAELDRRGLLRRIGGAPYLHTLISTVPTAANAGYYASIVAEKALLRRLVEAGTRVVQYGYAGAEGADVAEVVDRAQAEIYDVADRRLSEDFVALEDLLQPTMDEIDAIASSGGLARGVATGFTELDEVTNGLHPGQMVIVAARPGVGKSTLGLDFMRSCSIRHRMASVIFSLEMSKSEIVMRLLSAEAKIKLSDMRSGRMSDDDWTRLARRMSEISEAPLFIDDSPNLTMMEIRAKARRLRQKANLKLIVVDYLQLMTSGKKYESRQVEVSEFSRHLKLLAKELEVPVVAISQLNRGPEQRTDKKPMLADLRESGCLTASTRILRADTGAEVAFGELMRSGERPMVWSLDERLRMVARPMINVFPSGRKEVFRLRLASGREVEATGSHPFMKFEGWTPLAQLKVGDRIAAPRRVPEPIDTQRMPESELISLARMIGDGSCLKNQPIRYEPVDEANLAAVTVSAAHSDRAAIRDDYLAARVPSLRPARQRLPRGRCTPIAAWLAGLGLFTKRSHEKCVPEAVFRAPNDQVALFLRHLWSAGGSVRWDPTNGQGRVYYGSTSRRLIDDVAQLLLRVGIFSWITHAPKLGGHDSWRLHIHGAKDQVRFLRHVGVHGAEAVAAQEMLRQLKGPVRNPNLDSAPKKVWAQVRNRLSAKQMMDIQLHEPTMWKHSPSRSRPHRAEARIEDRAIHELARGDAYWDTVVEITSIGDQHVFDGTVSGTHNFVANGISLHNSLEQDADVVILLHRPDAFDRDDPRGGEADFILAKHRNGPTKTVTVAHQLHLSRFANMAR

[8] = molecular target: Alkaline phosphatase, placental type (Homo sapiens, UniProt P05187); test: PLAP enzyme inhibitors, confirmation, biochemical, luminescence (AID 1512); type: functional
Leucine aminopeptidase = molecular target: T3, Leucine aminopeptidase (Plasmodium falciparum 3D7, UniProt Q8IL11); test: P. falciparum M17LAP inhibitors, primary screen, biochemical, fluorogenic H-Leu-NHMec substrate, 1536-well (AID 1619); type: functional
T3 sequence (Q8IL11 whole entry): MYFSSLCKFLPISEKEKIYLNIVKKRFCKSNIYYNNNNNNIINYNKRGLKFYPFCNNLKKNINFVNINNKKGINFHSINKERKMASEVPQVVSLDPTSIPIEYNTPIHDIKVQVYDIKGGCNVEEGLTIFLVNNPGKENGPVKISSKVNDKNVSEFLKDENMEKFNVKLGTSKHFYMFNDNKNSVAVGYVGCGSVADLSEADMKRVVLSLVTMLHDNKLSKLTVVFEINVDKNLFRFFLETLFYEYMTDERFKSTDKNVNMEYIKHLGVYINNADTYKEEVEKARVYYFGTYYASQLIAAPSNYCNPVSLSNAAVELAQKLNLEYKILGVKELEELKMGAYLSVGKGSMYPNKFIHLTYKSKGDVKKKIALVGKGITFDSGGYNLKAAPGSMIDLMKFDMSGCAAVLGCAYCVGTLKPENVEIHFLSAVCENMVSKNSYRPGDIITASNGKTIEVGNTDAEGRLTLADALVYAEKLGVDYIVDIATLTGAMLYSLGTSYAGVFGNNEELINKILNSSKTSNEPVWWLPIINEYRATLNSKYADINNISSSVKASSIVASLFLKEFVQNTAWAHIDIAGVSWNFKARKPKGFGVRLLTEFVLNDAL

[9] = molecular target: T4, Alkaline phosphatase, tissue-nonspecific isozyme (Homo sapiens, UniProt P05186); test: human TNAP enzyme inhibitors, SAR follow-up, biochemical, luminescent, dose response (AID 1056)
T4 sequence (P05186 whole entry): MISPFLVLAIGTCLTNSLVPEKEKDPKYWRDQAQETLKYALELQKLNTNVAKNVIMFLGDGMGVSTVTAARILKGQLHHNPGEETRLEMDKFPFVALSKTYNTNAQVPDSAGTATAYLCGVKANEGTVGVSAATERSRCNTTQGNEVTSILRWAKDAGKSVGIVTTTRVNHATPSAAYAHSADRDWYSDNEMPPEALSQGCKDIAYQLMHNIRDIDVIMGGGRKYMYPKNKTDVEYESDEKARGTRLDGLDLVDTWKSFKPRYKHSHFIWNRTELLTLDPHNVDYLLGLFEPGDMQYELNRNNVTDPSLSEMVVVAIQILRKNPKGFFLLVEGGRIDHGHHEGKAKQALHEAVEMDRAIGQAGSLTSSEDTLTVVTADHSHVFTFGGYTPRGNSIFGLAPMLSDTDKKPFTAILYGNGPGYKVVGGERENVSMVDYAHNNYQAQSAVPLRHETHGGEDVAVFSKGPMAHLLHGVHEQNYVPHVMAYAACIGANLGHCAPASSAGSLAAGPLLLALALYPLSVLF

[10] = molecular target: Glyceraldehyde-3-phosphate dehydrogenase (Homo sapiens, UniProt P04406)
Aspartyl aminopeptidase = molecular target: T5, Aspartyl aminopeptidase (Plasmodium falciparum 3D7, UniProt Q8I2J3); test: Counterscreen for inhibitors of M1 and M17 aminopeptidases: QFRET-based biochemical high throughput dose response assay for inhibitors of the Plasmodium falciparum M18 Aspartyl Aminopeptidase (PFM18AAP). [Related PubChem assays: 1619 (Screening assay (M17LAP inhibitors).), 1445 (Screening assay (M1AAP inhibitors).)]
T5 sequence (Q8I2J3 whole entry): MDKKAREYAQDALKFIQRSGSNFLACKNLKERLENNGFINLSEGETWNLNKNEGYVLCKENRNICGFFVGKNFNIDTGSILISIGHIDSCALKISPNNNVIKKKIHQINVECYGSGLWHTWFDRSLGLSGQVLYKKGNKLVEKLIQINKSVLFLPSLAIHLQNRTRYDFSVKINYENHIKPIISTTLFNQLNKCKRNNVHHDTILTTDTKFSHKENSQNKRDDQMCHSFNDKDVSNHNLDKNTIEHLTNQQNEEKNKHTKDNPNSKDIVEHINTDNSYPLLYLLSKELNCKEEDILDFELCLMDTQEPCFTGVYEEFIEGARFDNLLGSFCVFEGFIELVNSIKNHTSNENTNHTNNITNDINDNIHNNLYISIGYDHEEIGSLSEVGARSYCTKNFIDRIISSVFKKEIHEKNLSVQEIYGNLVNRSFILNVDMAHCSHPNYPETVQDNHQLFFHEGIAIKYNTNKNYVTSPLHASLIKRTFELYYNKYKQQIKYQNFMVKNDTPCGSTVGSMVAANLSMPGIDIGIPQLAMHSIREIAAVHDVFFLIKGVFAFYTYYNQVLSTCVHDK

cells = type: functional
[11] = NIH-3T3 fibroblast cytotoxicity, dose response, cytotoxicity control, cell-based, fluorescence, Alamar Blue, secondary assay (AID 2327); type: functional;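 further: NIH-3T3 mouse fibroblasts cultured with fluconazole at 8 µg/mL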
[12] = C. albicans growth with fluconazole, confirmation, fluorescence, retest (AID 2467); type: functional, cell-based
Cytochrome P450 2D6 = Cytochrome P450 2D6 (Homo sapiens, UniProt P10635);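 further: CYP2D6 member of a cytochrome P450 panel assay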
Cytochrome P450 2C9 = Cytochrome P450 2C9 (Homo sapiens, UniProt P11712)
Cytochrome P450 2C19 = Cytochrome P450 2C19 (Homo sapiens, UniProt P33261); test: Cytochrome panel assay with activity outcomes. Panel member name: p450-cyp2c19 Compounds with AC50 equal or less than 10 uM are considered active; type: functional; conditions: read-out: AC50

Sequence of Cytochrome P450 3A4 (P08684 whole entry): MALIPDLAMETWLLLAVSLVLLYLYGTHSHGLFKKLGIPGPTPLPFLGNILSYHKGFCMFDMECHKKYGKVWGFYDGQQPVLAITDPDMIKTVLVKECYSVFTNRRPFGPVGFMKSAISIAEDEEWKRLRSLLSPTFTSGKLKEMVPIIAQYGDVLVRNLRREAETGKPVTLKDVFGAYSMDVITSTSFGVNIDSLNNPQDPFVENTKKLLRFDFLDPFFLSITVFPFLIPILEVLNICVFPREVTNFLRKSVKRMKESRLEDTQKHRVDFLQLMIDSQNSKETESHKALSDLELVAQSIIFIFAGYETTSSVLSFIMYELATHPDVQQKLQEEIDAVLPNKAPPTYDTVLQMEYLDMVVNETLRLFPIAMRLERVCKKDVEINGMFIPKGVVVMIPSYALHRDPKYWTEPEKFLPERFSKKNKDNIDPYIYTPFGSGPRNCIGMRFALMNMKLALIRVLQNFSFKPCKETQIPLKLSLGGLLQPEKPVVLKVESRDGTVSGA
Sequence of DNA dC->dU-editing enzyme APOBEC-3G (Q9HC16 whole entry): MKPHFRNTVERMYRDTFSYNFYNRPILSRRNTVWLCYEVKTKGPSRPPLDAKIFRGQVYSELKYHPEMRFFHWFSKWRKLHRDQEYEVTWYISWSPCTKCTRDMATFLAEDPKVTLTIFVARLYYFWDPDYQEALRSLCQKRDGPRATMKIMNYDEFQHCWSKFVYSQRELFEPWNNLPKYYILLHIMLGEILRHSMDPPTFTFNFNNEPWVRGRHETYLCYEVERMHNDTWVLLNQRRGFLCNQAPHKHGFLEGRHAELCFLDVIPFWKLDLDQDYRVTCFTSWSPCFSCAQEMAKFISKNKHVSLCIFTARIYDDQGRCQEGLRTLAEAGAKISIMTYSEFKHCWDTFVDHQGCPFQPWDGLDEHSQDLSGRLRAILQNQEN
Sequence of DNA dC->dU-editing enzyme APOBEC-3A (P31941 whole entry): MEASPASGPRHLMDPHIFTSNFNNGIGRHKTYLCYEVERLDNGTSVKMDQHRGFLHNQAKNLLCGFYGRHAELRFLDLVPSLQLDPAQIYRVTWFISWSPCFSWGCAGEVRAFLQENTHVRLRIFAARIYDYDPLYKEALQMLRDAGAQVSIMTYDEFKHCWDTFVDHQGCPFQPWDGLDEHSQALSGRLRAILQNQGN
Sequence of Voltage-dependent T-type calcium channel subunit alpha-1H (O95180 whole entry): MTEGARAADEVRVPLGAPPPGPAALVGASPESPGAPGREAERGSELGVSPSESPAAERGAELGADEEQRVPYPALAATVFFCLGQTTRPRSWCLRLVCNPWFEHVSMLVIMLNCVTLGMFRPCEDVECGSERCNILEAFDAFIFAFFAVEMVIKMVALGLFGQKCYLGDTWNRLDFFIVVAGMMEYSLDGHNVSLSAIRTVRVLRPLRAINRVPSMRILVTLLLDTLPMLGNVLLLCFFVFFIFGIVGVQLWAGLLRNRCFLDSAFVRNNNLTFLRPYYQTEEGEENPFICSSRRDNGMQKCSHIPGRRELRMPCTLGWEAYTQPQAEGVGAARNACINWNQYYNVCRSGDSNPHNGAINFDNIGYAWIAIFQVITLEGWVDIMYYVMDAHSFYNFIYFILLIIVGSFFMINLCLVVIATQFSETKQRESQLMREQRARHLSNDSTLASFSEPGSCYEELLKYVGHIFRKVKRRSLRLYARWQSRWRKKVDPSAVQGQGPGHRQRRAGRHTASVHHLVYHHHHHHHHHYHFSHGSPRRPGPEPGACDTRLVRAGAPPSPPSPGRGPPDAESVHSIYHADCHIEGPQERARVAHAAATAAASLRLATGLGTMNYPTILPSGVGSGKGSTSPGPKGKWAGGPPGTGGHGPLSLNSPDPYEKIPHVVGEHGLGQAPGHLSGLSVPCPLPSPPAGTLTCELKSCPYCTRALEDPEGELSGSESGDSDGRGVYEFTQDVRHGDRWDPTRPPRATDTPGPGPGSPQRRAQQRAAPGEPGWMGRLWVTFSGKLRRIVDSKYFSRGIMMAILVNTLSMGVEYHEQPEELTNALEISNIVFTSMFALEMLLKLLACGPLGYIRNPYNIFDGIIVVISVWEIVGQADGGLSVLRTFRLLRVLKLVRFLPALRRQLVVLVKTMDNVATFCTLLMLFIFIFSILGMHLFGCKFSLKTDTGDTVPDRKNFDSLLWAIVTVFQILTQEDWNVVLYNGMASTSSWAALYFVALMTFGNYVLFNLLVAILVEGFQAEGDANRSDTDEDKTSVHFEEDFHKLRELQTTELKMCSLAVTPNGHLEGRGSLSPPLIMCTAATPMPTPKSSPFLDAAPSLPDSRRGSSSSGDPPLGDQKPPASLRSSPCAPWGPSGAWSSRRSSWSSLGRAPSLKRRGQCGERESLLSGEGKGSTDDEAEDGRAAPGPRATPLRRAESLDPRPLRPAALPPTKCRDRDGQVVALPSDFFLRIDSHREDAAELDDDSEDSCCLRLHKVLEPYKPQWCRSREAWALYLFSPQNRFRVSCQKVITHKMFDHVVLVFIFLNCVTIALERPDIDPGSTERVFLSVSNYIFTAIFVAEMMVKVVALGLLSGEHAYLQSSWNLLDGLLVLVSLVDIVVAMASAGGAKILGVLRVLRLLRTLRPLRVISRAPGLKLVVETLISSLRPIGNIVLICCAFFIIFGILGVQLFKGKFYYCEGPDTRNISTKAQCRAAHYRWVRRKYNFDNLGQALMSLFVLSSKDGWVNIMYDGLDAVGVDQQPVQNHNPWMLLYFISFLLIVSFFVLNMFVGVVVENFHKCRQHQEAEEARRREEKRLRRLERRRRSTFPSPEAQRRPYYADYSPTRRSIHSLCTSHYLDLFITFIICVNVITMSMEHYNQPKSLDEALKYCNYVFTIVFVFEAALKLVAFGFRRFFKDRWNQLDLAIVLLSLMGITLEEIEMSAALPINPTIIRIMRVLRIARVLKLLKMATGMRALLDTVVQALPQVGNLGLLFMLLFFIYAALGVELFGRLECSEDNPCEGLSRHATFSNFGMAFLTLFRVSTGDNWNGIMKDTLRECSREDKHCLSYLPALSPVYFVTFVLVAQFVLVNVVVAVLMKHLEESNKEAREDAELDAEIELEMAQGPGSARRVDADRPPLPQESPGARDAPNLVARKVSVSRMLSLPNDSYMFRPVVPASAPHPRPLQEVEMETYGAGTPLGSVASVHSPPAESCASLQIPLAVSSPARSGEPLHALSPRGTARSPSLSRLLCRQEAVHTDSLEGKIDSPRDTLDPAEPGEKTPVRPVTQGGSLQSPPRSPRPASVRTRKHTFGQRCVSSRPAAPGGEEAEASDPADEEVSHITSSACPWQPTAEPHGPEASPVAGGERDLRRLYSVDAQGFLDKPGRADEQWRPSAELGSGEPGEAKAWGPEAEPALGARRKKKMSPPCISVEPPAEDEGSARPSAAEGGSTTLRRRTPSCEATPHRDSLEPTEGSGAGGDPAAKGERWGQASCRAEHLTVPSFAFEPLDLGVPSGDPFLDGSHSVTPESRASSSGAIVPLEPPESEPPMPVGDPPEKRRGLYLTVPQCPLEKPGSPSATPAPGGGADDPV
Sequence of Polyadenylate-binding protein 1 (P11940 whole entry): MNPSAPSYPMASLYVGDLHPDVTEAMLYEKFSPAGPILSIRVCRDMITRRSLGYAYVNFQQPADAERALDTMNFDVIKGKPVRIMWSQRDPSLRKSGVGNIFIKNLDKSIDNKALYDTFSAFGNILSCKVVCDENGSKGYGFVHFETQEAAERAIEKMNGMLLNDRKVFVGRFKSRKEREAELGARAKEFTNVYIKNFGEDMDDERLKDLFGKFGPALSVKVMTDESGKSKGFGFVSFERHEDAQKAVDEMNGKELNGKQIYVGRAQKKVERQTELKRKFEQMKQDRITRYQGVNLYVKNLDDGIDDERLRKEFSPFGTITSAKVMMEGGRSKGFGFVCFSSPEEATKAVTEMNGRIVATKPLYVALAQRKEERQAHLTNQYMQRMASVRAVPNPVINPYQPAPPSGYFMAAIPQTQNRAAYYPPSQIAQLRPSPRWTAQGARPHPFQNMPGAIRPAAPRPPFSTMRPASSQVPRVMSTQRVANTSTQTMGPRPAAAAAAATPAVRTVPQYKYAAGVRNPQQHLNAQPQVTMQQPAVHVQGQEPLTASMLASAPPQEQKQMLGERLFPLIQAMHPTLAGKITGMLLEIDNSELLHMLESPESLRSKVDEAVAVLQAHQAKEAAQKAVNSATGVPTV
Sequence of Procathepsin L (P07711 whole entry): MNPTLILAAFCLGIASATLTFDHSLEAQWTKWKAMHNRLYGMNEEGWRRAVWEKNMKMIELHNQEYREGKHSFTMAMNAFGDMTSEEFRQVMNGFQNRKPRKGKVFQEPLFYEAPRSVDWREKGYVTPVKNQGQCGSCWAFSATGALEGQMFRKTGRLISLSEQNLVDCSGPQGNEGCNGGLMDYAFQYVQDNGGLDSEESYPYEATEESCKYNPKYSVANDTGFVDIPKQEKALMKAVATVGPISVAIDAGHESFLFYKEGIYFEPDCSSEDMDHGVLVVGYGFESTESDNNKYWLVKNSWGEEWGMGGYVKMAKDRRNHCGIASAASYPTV
Sequence of Glyceraldehyde-3-phosphate dehydrogenase (P04406 whole entry): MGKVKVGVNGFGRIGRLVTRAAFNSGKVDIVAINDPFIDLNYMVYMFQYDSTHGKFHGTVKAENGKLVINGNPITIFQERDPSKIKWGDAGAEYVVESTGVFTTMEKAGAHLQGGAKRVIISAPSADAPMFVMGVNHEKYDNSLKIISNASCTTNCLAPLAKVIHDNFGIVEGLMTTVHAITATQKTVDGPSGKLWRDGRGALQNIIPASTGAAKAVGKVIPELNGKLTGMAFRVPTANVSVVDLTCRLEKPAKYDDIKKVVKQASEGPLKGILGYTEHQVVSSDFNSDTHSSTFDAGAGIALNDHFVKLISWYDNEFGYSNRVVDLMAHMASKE

CCOC(=O)Cc1csc(NC(=O)c2ccc(S(=O)(=O)N3CCCC3)cc2)n1
EC50 [1]: > 50 µM (active)

CC(=O)OCC1OC(C#Cc2ccc(Br)cc2)C=CC1OC(C)=O (centres undefined)
AC50 (Cytochrome P450 3A4): 3.16 µM (inconclusive)

O=C(NCc1ccc2c(c1)OCO2)c1ccc(CN2CCc3ccccc3C2)cc1
EC50 [2]: 7.5 µM (active)

COc1cc(/C=C/c2cccc[n+]2C)ccc1OCC(=O)Nc1ccccc1C
IC50 [3]: 1.56 µM (active) | IC50 [4]: > 100 µM (inactive) | IC50 [5]: 3.83 µM (active) | IC50 [6]: 1.29 µM (active)

COc1ccccc1NC(=O)c1cc[n+](C)cc1
IC50 [3]: 2.48 µM (active) | IC50 [4]: 90.8 µM (active) | IC50 [5]: 5.63 µM (active) | IC50 [6]: 2.3 µM (active)

COc1ccc(/C=C2\C(=O)NCC(=O)N2C)cc1
IC50 [3]: 2.81 µM (active) | IC50 [4]: > 100 µM (inactive) | IC50 [5]: 6.16 µM (active) | IC50 [6]: 6.99 µM (active)

CCCC(=O)N1CCN(c2ccc(NC(=S)NC(=O)c3cccc(C)c3)cc2)CC1
EC50 [1]: > 50 µM (active)

O=C(CN1C2=NCCN2c2ccccc21)c1ccc2c(c1)OCO2
EC50 [1]: > 50 µM (active)

Cc1ccc(CNC(=O)C[S+]([O-])Cc2nc(-c3ccccc3C)oc2C)cc1 (centres undefined)
EC50 [2]: 6 µM (active)

Cc1ccc(NC(=O)C[S+]([O-])Cc2nc(-c3ccc(C)cc3)oc2C)cc1 (centres undefined)
EC50 [2]: 2.45 µM (active)

Oc1cc(-c2cccc3ccccc23)[nH]n1
EC50 (Protein RecA): 0.834 µM (active) | IC50 (Procathepsin L): > 59.6 µM (not active) | AC50 [7]: 2.39 µM (active) | IC50 [8]: > 10 µM (inactive) | IC50 (Leucine aminopeptidase): 2.9 µM (active) | IC50 [9]: 3.87 µM (active) | IC50 [10]: > 100 µM (not active) | IC50 (Aspartyl aminopeptidase): > 73.5 µM (not active)

CC(CCc1ccccc1)NC(=O)CN1CCN(Cc2ccc(Cl)cc2)C1=O (centres undefined)
EC50 [2]: 4.5 µM (active)

CCCCCCCC(=O)N/N=C/c1ccc([N+](=O)[O-])o1
IC50 (cells): 2.63 µM (active) | EC50 [11]: > 160 µM (inactive) | EC50 [1]: > 50 µM (active) | EC50 [12]: 2.88 µM (active)

CC1=C(C(=O)OCc2ccccc2)C(c2ccccc2)NC(=O)N1CCCCCC(=O)O (centres undefined)
IC50 [4]: 78.5 µM (active) | AC50 (Cytochrome P450 2D6): 39.8 µM (inconclusive) | AC50 (Cytochrome P450 2C9): 25.1 µM (inconclusive) | AC50 (Cytochrome P450 2C19): 39.8 µM (inconclusive) | IC50 [5]: 29.9 µM (active)

Cc1cc(C)c(N)cc1C
AC50 (Cytochrome P450 3A4): 39.8 µM (inconclusive)

O=c1c(-c2cc(O)c(O)c(O)c2)coc2cc(O)c(O)c(O)c12 [IRIGENOL]
AC50 (Cytochrome P450 3A4): 25.1 µM (inconclusive)
